Experimental data published in US10329309B2, “3-(3H-imidazo[4,5-B]pyridin-2-yl)-1H-pyrazolo[4,3-B]pyridines and therapeutic uses thereof” (Samumed, LLC, priority 2015, dated 2019).

Key:
[1] = tested on: Wnt activity (Sp5-Luc reporter, SW480 colon carcinoma cells); experiment: Screening assay for Wnt activity: Sp5-Luc reporter gene assay in SW480 cells; format: cell-based; details: Homo sapiens; for inhibition at 10 µM: 10 μM compound, read-out: percent inhibition at 10 μM (given for EC50 of >10 μM); for EC50: overnight incubation, 10-point dose-response from 10 μM
Source text: The screening assay for Wnt activity is described as follows. Reporter cell lines can be generated by stably transducing cancer cell lines (e.g., colon cancer) or primary cells (e.g., IEC-6 intestinal cells) with a lentiviral construct that includes a Wnt-responsive promoter driving expression of the firefly luciferase gene.
SW480 colon carcinoma cells were transduced with a lentiviral vector expressing luciferase with a human Sp5 promoter consisting of a sequence of eight TCF/LEF binding sites. SW480 cells stably expressing the Sp5-Luc reporter gene and a hygromycin resistance gene were selected by treatment with 150 μg/mL of hygromycin for 7 days. These stably transduced SW480 cells were expanded in cell culture and used for all further screening activities. Each compound was dissolved in DMSO as a 10 mM stock and used to prepare compound source plates. Serial dilution (1:3, 10-point dose-response curves starting from 10 μM) and compound transfer was performed using the ECHO 550 (Labcyte, Sunnyvale, Calif.) into 384-well white solid bottom assay plates (Greiner Bio-One) with appropriate DMSO backfill for a final DMSO concentration of 0.1%. For Sp5-Luc reporter gene assays, the cells were plated at 4,000 cells/well in 384-well plates with medium containing 1% fetal bovine serum and incubated overnight at 37° C. and 5% CO2. Following incubation, 20 μl of BrightGlo luminescence reagent (Promega) was added to each well of the 384-well assay plates. The plates were placed on an orbital shaker for 2 min and then luminescence was quantified using the Envision (Perkin Elmer) plate reader. Readings were normalized to DMSO only treated cells, and normalized activities were utilized for EC50 calculations using the dose-response log (inhibitor) vs. response -variable slope (four parameters) nonlinear regression feature available in GraphPad Prism 5.0 (or Dotmatics). For EC50 of >10 μM, the percent inhibition at 10 μM is provided.

IL-6 (THP-1 cells) = experiment: Inhibition of IL-6 in LPS-stimulated THP-1 monocytes (HTRF); format: cell-based; details: Homo sapiens; for EC50: LPS 500 ng/mL, IL-6 by HTRF; for inhibition at 10 µM: LPS stimulated, IL-6, at 10 μM, read-out: percent inhibition at 10 μM (given for EC50 of >10 μM)
Method: Human monocyte cell line (THP-1 cells; Catalog # TIB-202, ATCC, Manassas, Va.) were cultured in Roswell Park Memorial Institute (RPMI) 1640 Medium (Catalog #21870-100, Buffalo, N.Y.) with 1% L-glutamine, 1% HEPES, 1% Sodium Pyruvate, 2% Sodium Bicarbonate supplemented with 100 units/mL penicillin, 50 μg/mL streptomycin, 2-mercaptoethanol (0.05 mM) [basal medium] and 10% fetal bovine serum (Catalog #16140089, Life Technologies, Carlsbad, Calif.) at 37° C. and 5% CO2.
THP-1 cells were cultured in basal media with 1% FBS for 24 hours before the start of the assay. Each compound was dissolved in DMSO as a 10 mM stock and used to prepare compound source plates. Serial dilution (1:3, 10-point dose-response curves starting from 10 μM) and compound transfer was performed using the ECHO 550 (Labcyte, Sunnyvale, Calif.) into 384-well white low volume assay plates (Greiner Bio-One) with appropriate DMSO backfill for a final DMSO concentration of 0.1%. THP-1 cells were plated at 5000 cells/well in the 384-well plates and incubated at 37° C. for 2 h. 500 ng/mL of LPS was added after 2 hours and cells were incubated for another 22 hours at 37° C. Plates were spun in a centrifuge for 1 minute at […] and a mixture of anti-IL6 XL665, and anti-IL6 Cryptate diluted in reconstitution buffer (Cisbio Inc.) was added to each well. Following incubation for 3 hrs at room temperature, Homogeneous Time-Resolved Fluorescence (HTRF) was measured using the Envision (Perkin Elmer) at 665 nm and […]. The ratio of fluorescence at 665 nm to 620 nm was used as a readout for IL6 quantification. All samples were processed in duplicate. Readings were normalized to DMSO treated cells and normalized activities were utilized for EC50 calculations using the dose-response log (inhibitor) vs. response -variable slope (four parameters) nonlinear regression feature available in GraphPad Prism 5.0 (or Dotmatics). For EC50 of >10 μM, the percent inhibition at 10 μM is provided.

| SMILES | inhibition at 10 µM [1] | EC50 [1] | EC50 (IL-6 (THP-1 cells)) | inhibition at 10 µM (IL-6 (THP-1 cells)) |
| --- | --- | --- | --- | --- |
| CCC(=O)Nc1cncc(-c2ccc3[nH]nc(-c4nc5c(-c6cccc(F)c6)ccnc5[nH]4)c3n2)c1 [Compound 1, N-(5-(3-(7-(3-fluorophenyl)-3H-imidazo[4,5-b]pyridin-2-yl)-1H-pyrazolo [4,3-b]pyridin-5-yl)pyridin-3-yl)propionamide] | 51.6% | > 10 µM | > 10 µM | 3.5% |
| Fc1cccc(-c2ccnc3[nH]c(-c4n[nH]c5ccc(-c6ccncc6)nc45)nc23)c1 [Compound 18, 3-(7-(3-fluorophenyl)-3H-imidazo[4,5-b]pyridin-2-yl)-5-(pyridin-4-yl)-1H-pyrazolo[4,3-b]pyridine] | 21% | > 10 µM | > 10 µM | 18.4% |
| O=C(Nc1cncc(-c2ccc3[nH]nc(-c4nc5c(-c6cccc(F)c6)ccnc5[nH]4)c3n2)c1)C1CC1 [Compound 20, N-(5-(3-(7-(3-Fluorophenyl)-3H-imidazo[4,5-b]pyridin-2-yl)-1H-pyrazolo [4,3-b]pyridin-5-yl)pyridin-3-yl)cyclopropanecarboxamide] | 51.2% | > 10 µM | > 10 µM | 16% |
| Fc1cccc(-c2ccnc3[nH]c(-c4n[nH]c5ccc(-c6cncc(CN7CCC(F)(F)C7)c6)nc45)nc23)c1 [Compound 26, 5-(5-((3,3-Difluoropyrrolidin-1-yl)methyl)pyridin-3-yl)-3-(7-(3-fluorophenyl)-3H-imidazo[4,5-b]pyridin-2-yl)-1H-pyrazolo[4,3-b]pyridine] | – | 0.885 µM | 0.985 µM | – |
| CC(C)(C)C(=O)Nc1cncc(-c2ccc3[nH]nc(-c4nc5c(-c6ccc(F)cc6)ccnc5[nH]4)c3n2)c1 [Compound 36, N-(5-(3-(7-(4-fluorophenyl)-3H-imidazo[4,5-b]pyridin-2-yl)-1H-pyrazolo [4,3-b]pyridin-5-yl)pyridin-3-yl)pivalamide] | 28.4% | > 10 µM | > 10 µM | 19.2% |
| Fc1ccc(-c2ccnc3[nH]c(-c4n[nH]c5ccc(-c6cncnc6)nc45)nc23)cc1 [Compound 55, 3-(7-(4-Fluorophenyl)-3H-imidazo[4,5-b]pyridin-2-yl)-5-(pyrimidin-5-yl)-1H-pyrazolo[4,3-b]pyridine] | 20.2% | > 10 µM | > 10 µM | 43.9% |
| Nc1cncc(-c2ccc3[nH]nc(-c4nc5c(-c6ccccc6F)ccnc5[nH]4)c3n2)c1 [Compound 59, 5-(3-(7-(2-fluorophenyl)-3H-imidazo[4,5-b]pyridin-2-yl)-1H-pyrazolo[4,3-b]pyridin-5-yl)pyridin-3-amine] | 46.5% | > 10 µM | 2.12 µM | – |
| CC(C)C(=O)Nc1cncc(-c2ccc3[nH]nc(-c4nc5c(-c6ccccc6F)ccnc5[nH]4)c3n2)c1 [Compound 65, N-(5-(3-(7-(2-fluorophenyl)-3H-imidazo[4,5-b]pyridin-2-yl)-1H-pyrazolo [4,3-b]pyridin-5-yl)pyridin-3-yl)isobutyramide] | 14.3% | > 10 µM | 0.151 µM | – |
| O=C(Nc1cncc(-c2ccc3[nH]nc(-c4nc5c(-c6ccccc6F)ccnc5[nH]4)c3n2)c1)C1CCCC1 [Compound 78, N-(5-(3-(7-(2-fluorophenyl)-3H-imidazo[4,5-b]pyridin-2-yl)-1H-pyrazolo [4,3-b]pyridin-5-yl)pyridin-3-yl)cyclopentanecarboxamide] | 39.4% | > 10 µM | 7.92 µM | – |
| CC(C)C(=O)Nc1cncc(-c2ccc3[nH]nc(-c4nc5c(-c6cccnc6)ccnc5[nH]4)c3n2)c1 [Compound 93, N-(5-(3-(7-(pyridin-3-yl)-3H-imidazo[4,5-b]pyridin-2-yl)-1H-pyrazolo[4,3-b]pyridin-5-yl)pyridin-3-yl)isobutyramide] | 10.2% | > 10 µM | 0.984 µM | – |
| Cc1ccncc1-c1ccc2[nH]nc(-c3nc4c(-c5ccncc5)ccnc4[nH]3)c2n1 [Compound 117, 5-(4-methylpyridin-3-yl)-3-(7-(pyridin-4-yl)-3H-imidazo[4,5-b]pyridin-2-yl)-1H-pyrazolo[4,3-b]pyridine] | 4.8% | > 10 µM | > 10 µM | 18.6% |
| O=C(Cc1ccccc1)Nc1cncc(-c2ccc3[nH]nc(-c4nc5c(-c6ccncc6)ccnc5[nH]4)c3n2)c1 [Compound 122, 2-phenyl-N-(5-(3-(7-(pyridin-4-yl)-3H-imidazo[4,5-b]pyridin-2-yl)-1H-pyrazolo[4,3-b]pyridin-5-yl)pyridin-3-yl)acetamide] | 8.4% | > 10 µM | > 10 µM | 27% |
| CCCC(=O)Nc1cncc(-c2ccc3[nH]nc(-c4nc5c(-c6ccncc6)ccnc5[nH]4)c3n2)c1 [Compound 129, N-(5-(3-(7-(pyridin-4-yl)-3H-imidazo[4,5-b]pyridin-2-yl)-1H-pyrazolo[4,3-b]pyridin-5-yl)pyridin-3-yl)butyramide] | 4.3% | > 10 µM | > 10 µM | 14.9% |
| c1cc(-c2ccc3[nH]nc(-c4nc5c(-c6ccncc6)ccnc5[nH]4)c3n2)ccn1 [Compound 130, 5-(pyridin-4-yl)-3-(7-(pyridin-4-yl)-3H-imidazo[4,5-b]pyridin-2-yl)-1H-pyrazolo [4,3-b]pyridine] | 12.1% | > 10 µM | > 10 µM | 18.9% |
| O=C(Nc1cncc(-c2ccc3[nH]nc(-c4nc5c(-c6ccncc6)ccnc5[nH]4)c3n2)c1)C1CCCCC1 [Compound 135, N-(5-(3-(7-(pyridin-4-yl)-3H-imidazo[4,5-b]pyridin-2-yl)-1H-pyrazolo[4,3-b]pyridin-5-yl)pyridin-3-yl)cyclohexanecarboxamide] | 10.4% | > 10 µM | > 1 µM | 22.1% |
| CCNCc1cncc(-c2ccc3[nH]nc(-c4nc5c(-c6ccccn6)ccnc5[nH]4)c3n2)c1 [Compound 146, N-((5-(3-(7-(pyridin-2-yl)-3H-imidazo[4,5-b]pyridin-2-yl)-1H-pyrazolo[4,3-b]pyridin-5-yl)pyridin-3-yl)methyl)ethanamine] | 10.6% | > 10 µM | > 10 µM | 4.5% |
| O=C(Nc1cncc(-c2ccc3[nH]nc(-c4nc5c(-c6ccccn6)ccnc5[nH]4)c3n2)c1)c1ccccc1 [Compound 151, N-(5-(3-(7-(Pyridin-2-yl)-3H-imidazo[4,5-b]pyridin-2-yl)-1H-pyrazolo[4,3-b]pyridin-5-yl)pyridin-3-yl)benzamide] | 6.4% | > 10 µM | > 10 µM | 39.1% |
| CCCCC(=O)Nc1cncc(-c2ccc3[nH]nc(-c4nc5c(-c6ccccn6)ccnc5[nH]4)c3n2)c1 [Compound 159, N-(5-(3-(7-(pyridin-2-yl)-3H-imidazo[4,5-b]pyridin-2-yl)-1H-pyrazolo[4,3-b]pyridin-5-yl)pyridin-3-yl)pentanamide] | 12.6% | > 10 µM | > 10 µM | 33.6% |
